Measurements from paper PMC6113708, “Ginsenoside Rb1 and Rd Remarkably Inhibited the Hepatic Uptake of Ophiopogonin D in Shenmai Injection Mediated by OATPs/oatps” (Frontiers in Pharmacology, 2018).

Legend:
[1] = molecular target: T1, OATP1B3 (Homo sapiens, UniProt Q9NPD5); assay: concentration-dependent uptake in HEK293T cells, LC-MS; assay type: cell-based
T1 construct: gene SLCO1B3; stably expressed in HEK293T cells (Shanghai Genechem), sodium butyrate induced
T1 sequence (Q9NPD5 1-702): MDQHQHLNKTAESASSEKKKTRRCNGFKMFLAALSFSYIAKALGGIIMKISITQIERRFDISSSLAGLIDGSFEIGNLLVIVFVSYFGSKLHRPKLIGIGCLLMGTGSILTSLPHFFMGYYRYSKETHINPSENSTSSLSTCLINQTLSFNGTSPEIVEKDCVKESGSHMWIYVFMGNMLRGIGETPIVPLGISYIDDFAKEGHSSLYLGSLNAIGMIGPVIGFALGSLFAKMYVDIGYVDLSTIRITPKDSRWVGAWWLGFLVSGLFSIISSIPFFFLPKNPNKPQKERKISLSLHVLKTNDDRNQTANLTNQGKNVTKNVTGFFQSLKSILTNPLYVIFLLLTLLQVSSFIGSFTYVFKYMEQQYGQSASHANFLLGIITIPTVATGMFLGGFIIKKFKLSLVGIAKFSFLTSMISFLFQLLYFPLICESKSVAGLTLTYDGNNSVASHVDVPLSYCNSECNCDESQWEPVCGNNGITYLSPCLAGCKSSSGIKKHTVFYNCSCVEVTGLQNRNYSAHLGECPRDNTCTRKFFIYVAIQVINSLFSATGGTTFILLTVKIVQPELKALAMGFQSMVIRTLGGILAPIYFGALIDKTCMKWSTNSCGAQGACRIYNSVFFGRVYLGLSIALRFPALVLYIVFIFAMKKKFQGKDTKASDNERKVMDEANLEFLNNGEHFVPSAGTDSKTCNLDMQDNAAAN
Text: concentration-dependent uptake in HEK293T cells, LC-MS on OATP1B3 | uptake process of OPD for OATP1B3 followed a typical Michaelis-Menten equation

[2] = molecular target: T1, OATP1B3; assay: inhibition of ophiopogonin D uptake in HEK293T cells, LC-MS; assay type: cell-based
Text: inhibition of ophiopogonin D uptake in HEK293T cells, LC-MS on OATP1B3

IC50 [2] | Compound | Km [1]
– | C[C@@H]1CC[C@@]2(OC1)O[C@H]1C[C@H]3[C@@H]4CC=C5C[C@@H](O)C[C@@H](O[C@@H]6O[C@H](C)[C@H](O)[C@H](O[C@@H]7OC[C@@H](O)[C@H](O)[C@H]7O)[C@H]6O[C@@H]6O[C@@H](C)[C@H](O)[C@@H](O)[C@H]6O)[C@]5(C)[C@H]4CC[C@]3(C)[C@H]1[C@@H]2C [Ophiopogonin D] | 11.3 µM
570 nM | CC(C)=CCC[C@](C)(O[C@@H]1O[C@H](CO[C@@H]2O[C@H](CO)[C@@H](O)[C@H](O)[C@H]2O)[C@@H](O)[C@H](O)[C@H]1O)[C@H]1CC[C@]2(C)[C@@H]1[C@H](O)C[C@@H]1[C@@]3(C)CC[C@H](O[C@@H]4O[C@H](CO)[C@@H](O)[C@H](O)[C@H]4O[C@@H]4O[C@H](CO)[C@@H](O)[C@H](O)[C@H]4O)C(C)(C)[C@@H]3CC[C@]12C [ginsenoside Rb1] | –
320 nM | CC(C)=CCC[C@](C)(O[C@@H]1O[C@H](CO)[C@@H](O)[C@H](O)[C@H]1O)[C@H]1CC[C@]2(C)[C@@H]1[C@H](O)C[C@@H]1[C@@]3(C)CC[C@H](O[C@@H]4O[C@H](CO)[C@@H](O)[C@H](O)[C@H]4O[C@@H]4O[C@H](CO)[C@@H](O)[C@H](O)[C@H]4O)C(C)(C)[C@@H]3CC[C@]12C [ginsenoside Rd] | –
